Measurements taken from US11097034B2, “Compositions and methods of modulating endochondral ossification and bone formation” (CASE WESTERN RESERVE UNIVERISTY, priority 2016, dated 2021).

How the values were obtained:
bone fracture = test: Temporal delivery of NGF to bone fracture site; format: in vivo, mice; details: NGF delivery 7-9 days post-fracture compared with 4-6 days
From the text: FIGS. 24(A-B) illustrate plots showing the temporal therapeutic delivery of NGF to improve bone fracture healing in mice. (A) Timeline of experimental delivery of NGF to bone fracture site for two different post-fracture time ranges. (B) NGF expression decreases over time post-fracture.

unstable tibia fractures = test: Carbachol injection into tibia fracture callus, μCT; format: in vivo, mouse; details: injected into callus during cartilaginous phase; vs DMEM controls; trend
Description: All procedures were performed on adult male wild type (C57BL/6) mice. We created unstable tibia fractures through three point bending and surgically resected nerves proximal to the fracture (either the sciatic nerve, femoral nerve, or both) and compared them to mice who received sham procedures. We injected Carbachol (Cch), a synthetic acetylcholine analogue, into the callus during the cartilaginous phase of healing and compared them to controls that were injected with Dulbecco's Modified Eagle's medium (DMEM) alone. Bone mineral density (BMD) and bone volume were quantified using micro-computed tomography (μCT) analysis. Following μCT the tibiae were processed for histology and stained using the Hall Brunt Quadruple stain (HBQ). The tissue composition was quantified using stereology on an Olympus Cast system.

In the case of NGF: nerve growth factor, the “activation of selected bone healing markers” value (bone fracture) is reported as “more robust activation of selected bone healing markers”.
`C[N+](C)(C)CCOC(N)=O` [Cch, Carbachol] was tested, and the “bone mineral density (BMD), μCT” value (unstable tibia fractures) was “higher BMD than controls”.
